Source: patent US20080009418A1, “Selective Inhibitors” (Alchemia LTD., priority 2004, published 2008)

What was measured:
Settings in all cases: compound at 10 μM
[1] = target: T1, Human neuropeptide Y (NPY-Y1) (Homo sapiens, UniProt P25929); experiment: Radioligand binding, human neuropeptide Y NPY-Y1 membranes, FlashPlate, [125I]-PYY
T1 construct: purchased Perkin Elmer Biosignal
T1 sequence (P25929 1-384): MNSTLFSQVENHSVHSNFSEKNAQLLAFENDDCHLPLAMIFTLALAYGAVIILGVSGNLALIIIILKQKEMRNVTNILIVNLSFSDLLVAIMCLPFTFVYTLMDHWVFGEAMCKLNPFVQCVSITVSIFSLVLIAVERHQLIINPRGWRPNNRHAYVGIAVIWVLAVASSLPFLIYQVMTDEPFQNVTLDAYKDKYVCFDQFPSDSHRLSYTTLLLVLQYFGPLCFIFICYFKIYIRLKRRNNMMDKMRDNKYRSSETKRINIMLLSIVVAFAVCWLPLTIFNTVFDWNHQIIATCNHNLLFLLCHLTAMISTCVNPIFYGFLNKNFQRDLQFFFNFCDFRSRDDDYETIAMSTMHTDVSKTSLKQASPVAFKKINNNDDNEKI
In short: (§1)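 Cloned human receptor membranes were coated onto FlashPlate wells and incubated with radioligand and compound (added from a 0.5 mM DMSO daughter plate) for 1 hour at room temperature in the dark. Scintillation counting gave percent inhibition, with DMSO defining total and reference ligand defining non-specific binding.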

Human neurokinin (NK1) = target: T2, Human neurokinin (NK1) (Homo sapiens, UniProt P25103); experiment: Radioligand binding, human neurokinin NK1 membranes, filtration, [125I]-Substance P
T2 construct: purchased Perkin Elmer Biosignal
In short: (§2)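 Membranes from cloned human receptors were incubated with compound and radioligand for 1 hour at room temperature. Bound ligand was collected on 0.3% PEI-soaked filters, washed with cold 50 mM Tris-HCl pH 7.4, and counted by scintillation. Percent inhibition was computed against DMSO totals and reference-ligand nonspecific wells.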

[2] = target: T3, Human melanin-concentrating hormone (MCH1) (Homo sapiens, UniProt Q99705); experiment: Radioligand binding, human melanin-concentrating hormone MCH1 membranes, FlashPlate, [125I]-S36057
T3 construct: purchased Perkin Elmer Biosignal
In short: as §1

Human melanocortin (MC5) = target: T4, Human melanocortin (MC5) (Homo sapiens, UniProt P33032); experiment: Radioligand binding, human melanocortin MC5 membranes, FlashPlate, [125I]-NDP-αMSH
T4 construct: purchased Perkin Elmer Biosignal
In short: as §1

Human δ-opioid (DOP) = target: T5, Human δ-opioid (DOP) (Homo sapiens, UniProt P41143); experiment: Radioligand binding, human δ-opioid (DOP) membranes, FlashPlate, [3H]-Bremazocine
T5 construct: purchased Perkin Elmer Biosignal
In short: as §1

Human μ-opioid (MOP) = target: T6, Human μ-opioid (MOP) (Homo sapiens, UniProt P35372); experiment: Radioligand binding, human μ-opioid (MOP) membranes, FlashPlate, [3H]-Naloxone
T6 construct: purchased Perkin Elmer Biosignal
In short: as §1

Human Melanocortin (MC4) = target: T7, Human Melanocortin (MC4) (Homo sapiens, UniProt P32245); experiment: Radioligand binding, human melanocortin MC4 membranes, FlashPlate, [125I]-NDP-αMSH
T7 construct: purchased Perkin Elmer Biosignal
In short: as §1

Human Melanocortin (MC3) = target: T8, Human Melanocortin (MC3) (Homo sapiens, UniProt P41968); experiment: Radioligand binding, human melanocortin MC3 membranes, FlashPlate, [125I]-NDP-αMSH
T8 construct: purchased Perkin Elmer Biosignal
In short: as §1

Mouse urotensin (mUR2) = target: T9, Mouse urotensin (mUR2) (Mus musculus, UniProt Q8VIH9); experiment: Radioligand binding, mouse urotensin mUR2 membranes, FlashPlate, [125I]-Urotensin II
T9 construct: purchased Perkin Elmer Biosignal
T9 sequence (Q8VIH9 1-385): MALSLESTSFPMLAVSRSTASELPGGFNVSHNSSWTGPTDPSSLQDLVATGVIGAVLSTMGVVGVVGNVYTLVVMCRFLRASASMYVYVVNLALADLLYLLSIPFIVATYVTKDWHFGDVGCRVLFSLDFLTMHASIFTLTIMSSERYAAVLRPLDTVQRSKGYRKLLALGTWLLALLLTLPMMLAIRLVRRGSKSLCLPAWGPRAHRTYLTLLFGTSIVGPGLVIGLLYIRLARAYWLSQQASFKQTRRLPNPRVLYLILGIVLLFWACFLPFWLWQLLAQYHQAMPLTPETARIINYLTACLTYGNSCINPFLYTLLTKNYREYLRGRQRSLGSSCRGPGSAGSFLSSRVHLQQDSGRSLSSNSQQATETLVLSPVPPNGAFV
In short: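 Cloned mouse urotensin (mUR2) receptor membranes from Perkin Elmer Biosignal were immobilized in FlashPlate microplates using a proprietary coating. Each well got 19.5 μl buffer, then 0.5 μl of DMSO, reference ligand, or compound. Adding 5 μl of [125I]-Urotensin II, diluted to 5× final concentration in binding buffer, started binding. Plates were sealed with TopSeal-A and incubated 1 hour at room temperature in the dark. Wells were counted for 30 seconds each on a TopCount after a 60-second delay, and percentage inhibition was calculated.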

Human opioid (ORL1) = target: T10, Human opioid (ORL1) (Homo sapiens, UniProt P41146); experiment: Radioligand binding, human opioid ORL1 membranes, FlashPlate, [125I]-Nociceptin
T10 construct: purchased Perkin Elmer Biosignal
In short: as §1

Human κ-Opioid (KOP) = target: T11, Human κ-Opioid (KOP) (Homo sapiens, UniProt P41145); experiment: Radioligand binding, human κ-opioid (KOP) membranes, filtration, [3H]-Diprenorphine
T11 construct: purchased Perkin Elmer Biosignal
In short: as §2

T3 sequence (Q99705 whole entry): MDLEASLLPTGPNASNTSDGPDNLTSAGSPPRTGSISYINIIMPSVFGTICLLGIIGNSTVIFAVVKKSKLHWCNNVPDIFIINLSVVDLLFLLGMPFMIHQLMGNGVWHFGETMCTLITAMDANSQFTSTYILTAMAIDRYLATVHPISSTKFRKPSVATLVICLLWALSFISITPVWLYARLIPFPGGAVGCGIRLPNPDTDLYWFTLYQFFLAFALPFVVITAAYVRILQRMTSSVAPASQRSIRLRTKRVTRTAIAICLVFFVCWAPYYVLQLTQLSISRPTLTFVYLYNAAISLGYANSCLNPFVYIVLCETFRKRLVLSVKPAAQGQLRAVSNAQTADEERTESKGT
T11 sequence (P41145 whole entry): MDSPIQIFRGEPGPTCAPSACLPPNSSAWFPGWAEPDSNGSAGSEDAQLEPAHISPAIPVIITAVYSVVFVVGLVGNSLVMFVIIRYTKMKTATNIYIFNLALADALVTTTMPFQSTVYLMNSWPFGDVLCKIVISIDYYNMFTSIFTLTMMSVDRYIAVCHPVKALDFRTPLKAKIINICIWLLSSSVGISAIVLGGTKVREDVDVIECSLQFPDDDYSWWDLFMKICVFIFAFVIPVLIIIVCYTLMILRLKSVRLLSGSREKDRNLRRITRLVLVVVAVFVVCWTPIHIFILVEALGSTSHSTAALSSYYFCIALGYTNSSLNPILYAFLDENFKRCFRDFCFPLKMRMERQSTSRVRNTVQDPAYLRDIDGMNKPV
T7 sequence (P32245 whole entry): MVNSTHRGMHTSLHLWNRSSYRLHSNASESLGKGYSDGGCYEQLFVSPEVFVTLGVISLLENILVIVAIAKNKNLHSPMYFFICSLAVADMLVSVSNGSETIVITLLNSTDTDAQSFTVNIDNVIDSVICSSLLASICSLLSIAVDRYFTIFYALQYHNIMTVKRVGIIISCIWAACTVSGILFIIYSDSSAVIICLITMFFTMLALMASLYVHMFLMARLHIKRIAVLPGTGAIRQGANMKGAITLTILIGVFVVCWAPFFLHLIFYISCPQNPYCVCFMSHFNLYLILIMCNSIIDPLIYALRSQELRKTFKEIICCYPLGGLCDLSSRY
T10 sequence (P41146 whole entry): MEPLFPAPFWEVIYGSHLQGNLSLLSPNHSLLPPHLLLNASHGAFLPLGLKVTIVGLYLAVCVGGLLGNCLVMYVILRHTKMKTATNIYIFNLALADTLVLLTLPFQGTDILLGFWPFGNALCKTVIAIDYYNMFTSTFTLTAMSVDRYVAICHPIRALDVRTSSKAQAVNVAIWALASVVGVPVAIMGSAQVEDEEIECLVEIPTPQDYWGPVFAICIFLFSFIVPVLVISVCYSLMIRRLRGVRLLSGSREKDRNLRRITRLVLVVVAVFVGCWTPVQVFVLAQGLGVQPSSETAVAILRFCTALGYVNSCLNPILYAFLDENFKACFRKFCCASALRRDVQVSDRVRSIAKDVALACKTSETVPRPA
T5 sequence (P41143 whole entry): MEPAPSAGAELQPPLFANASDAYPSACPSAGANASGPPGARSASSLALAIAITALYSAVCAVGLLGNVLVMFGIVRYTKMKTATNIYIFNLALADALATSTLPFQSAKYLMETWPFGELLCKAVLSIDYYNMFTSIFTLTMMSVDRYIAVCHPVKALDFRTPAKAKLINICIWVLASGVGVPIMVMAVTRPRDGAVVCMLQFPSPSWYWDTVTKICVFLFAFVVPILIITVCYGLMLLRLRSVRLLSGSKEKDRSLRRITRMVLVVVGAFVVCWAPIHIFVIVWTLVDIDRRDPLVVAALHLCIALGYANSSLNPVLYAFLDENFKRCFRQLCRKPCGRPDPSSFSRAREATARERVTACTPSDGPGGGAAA
T6 sequence (P35372 whole entry): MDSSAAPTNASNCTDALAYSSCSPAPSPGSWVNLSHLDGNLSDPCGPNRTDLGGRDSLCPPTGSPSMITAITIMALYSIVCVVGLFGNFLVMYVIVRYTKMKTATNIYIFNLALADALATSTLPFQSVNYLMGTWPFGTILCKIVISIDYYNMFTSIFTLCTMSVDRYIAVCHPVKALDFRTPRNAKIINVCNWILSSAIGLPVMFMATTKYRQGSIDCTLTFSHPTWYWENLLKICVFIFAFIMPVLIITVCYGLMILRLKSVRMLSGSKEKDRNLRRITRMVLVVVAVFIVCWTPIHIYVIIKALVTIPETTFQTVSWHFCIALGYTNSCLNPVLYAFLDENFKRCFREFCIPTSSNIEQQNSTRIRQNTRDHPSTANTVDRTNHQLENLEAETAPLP
T2 sequence (P25103 whole entry): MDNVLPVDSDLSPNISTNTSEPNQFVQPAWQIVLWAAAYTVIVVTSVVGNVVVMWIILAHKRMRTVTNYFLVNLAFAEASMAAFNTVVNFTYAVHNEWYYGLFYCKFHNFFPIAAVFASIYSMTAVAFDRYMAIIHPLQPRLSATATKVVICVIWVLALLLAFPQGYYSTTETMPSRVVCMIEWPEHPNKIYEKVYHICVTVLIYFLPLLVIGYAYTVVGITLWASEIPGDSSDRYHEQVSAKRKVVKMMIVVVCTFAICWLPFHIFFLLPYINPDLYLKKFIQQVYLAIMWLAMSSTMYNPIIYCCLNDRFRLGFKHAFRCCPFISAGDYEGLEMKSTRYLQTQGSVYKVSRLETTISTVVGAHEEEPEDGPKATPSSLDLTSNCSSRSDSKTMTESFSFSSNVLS
T4 sequence (P33032 whole entry): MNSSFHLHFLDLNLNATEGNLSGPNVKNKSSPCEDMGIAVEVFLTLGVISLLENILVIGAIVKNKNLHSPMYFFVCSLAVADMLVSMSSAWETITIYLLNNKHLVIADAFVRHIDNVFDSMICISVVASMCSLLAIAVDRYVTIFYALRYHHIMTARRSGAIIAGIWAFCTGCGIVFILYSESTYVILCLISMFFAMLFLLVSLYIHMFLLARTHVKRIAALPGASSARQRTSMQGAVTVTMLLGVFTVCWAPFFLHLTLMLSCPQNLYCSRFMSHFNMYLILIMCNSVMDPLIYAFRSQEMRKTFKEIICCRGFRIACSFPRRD
T8 sequence (P41968 whole entry): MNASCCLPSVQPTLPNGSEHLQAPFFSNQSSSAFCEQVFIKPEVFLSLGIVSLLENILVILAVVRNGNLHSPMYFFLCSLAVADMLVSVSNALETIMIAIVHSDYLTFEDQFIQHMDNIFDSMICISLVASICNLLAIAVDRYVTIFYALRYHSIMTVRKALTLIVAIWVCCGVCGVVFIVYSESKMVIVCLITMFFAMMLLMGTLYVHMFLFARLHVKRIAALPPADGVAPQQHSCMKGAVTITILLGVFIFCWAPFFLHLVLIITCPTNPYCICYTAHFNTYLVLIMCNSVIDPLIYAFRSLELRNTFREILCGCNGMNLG

| SMILES | A9: inhibition of radioligand binding, human neuropeptide Y (NPY-Y1) ([1]; [125I]-PYY) | A8: inhibition of radioligand binding, human neurokinin (NK1) (Human neurokinin (NK1); [125I]-Substance P) | A6: inhibition of radioligand binding, human melanin-concentrating hormone (MCH1) ([2]; [125I]-S36057) | A5: inhibition of radioligand binding, human melanocortin (MC5) (Human melanocortin (MC5); [125I]-NDP-αMSH) | A1: inhibition of radioligand binding, human δ-opioid (DOP) (Human δ-opioid (DOP); [3H]-Bremazocine) | A7: inhibition of radioligand binding, human μ-opioid (MOP) (Human μ-opioid (MOP); [3H]-Naloxone) | A4: inhibition of radioligand binding, human melanocortin (MC4) (Human Melanocortin (MC4); [125I]-NDP-αMSH) | A3: inhibition of radioligand binding, human melanocortin (MC3) (Human Melanocortin (MC3); [125I]-NDP-αMSH) | A11: inhibition of radioligand binding, mouse urotensin (mUR2) (Mouse urotensin (mUR2); [125I]-Urotensin II) | A10: inhibition of radioligand binding, human opioid (ORL1) (Human opioid (ORL1); [125I]-Nociceptin) | A2: inhibition of radioligand binding, human κ-opioid (KOP) (Human κ-Opioid (KOP); [3H]-Diprenorphine) | further results |
| --- | --- | --- | --- | --- | --- | --- | --- | --- | --- | --- | --- | --- |
| CO[C@H]1[C@H](O)[C@@H](COCc2cccc(O)c2)OC(OCc2ccc(Cl)cc2)[C@@H]1NC(=O)CCCNC(=N)N (stereo partly shown) [compound 157] |  |  |  |  |  |  |  |  |  |  |  | A9 radioligand binding, percentage inhibition ([1]; [125I]-PYY): − (“−” indicates less than 50% inhibition at 10 μM); A8 radioligand binding, percentage inhibition (Human neurokinin (NK1); [125I]-Substance P): + (“+” indicates greater than 50% inhibition at 10 μM); A6 radioligand binding, percentage inhibition ([2]; [125I]-S36057): + (“+” indicates greater than 50% inhibition at 10 μM); A5 radioligand binding, percentage inhibition (Human melanocortin (MC5); [125I]-NDP-αMSH): + (“+” indicates greater than 50% inhibition at 10 μM); A1 radioligand binding, percentage inhibition (Human δ-opioid (DOP); [3H]-Bremazocine): − (“−” indicates less than 50% inhibition at 10 μM); A7 radioligand binding, percentage inhibition (Human μ-opioid (MOP); [3H]-Naloxone): − (“−” indicates less than 50% inhibition at 10 μM); A4 radioligand binding, percentage inhibition (Human Melanocortin (MC4); [125I]-NDP-αMSH): − (“−” indicates less than 50% inhibition at 10 μM); A3 radioligand binding, percentage inhibition (Human Melanocortin (MC3); [125I]-NDP-αMSH): − (“−” indicates less than 50% inhibition at 10 μM); A11 radioligand binding, percentage inhibition (Mouse urotensin (mUR2); [125I]-Urotensin II): − (“−” indicates less than 50% inhibition at 10 μM); A10 radioligand binding, percentage inhibition (Human opioid (ORL1); [125I]-Nociceptin): − (“−” indicates less than 50% inhibition at 10 μM); A2 radioligand binding, percentage inhibition (Human κ-Opioid (KOP); [3H]-Diprenorphine): − (“−” indicates less than 50% inhibition at 10 μM) |
| COC[C@H]1OC(OCCc2ccccc2)[C@H](NC(=O)CNC(=N)N)[C@@H](OCc2ccc(-c3ccccc3)cc2)[C@@H]1O (stereo partly shown) [compound 40] |  |  |  |  |  |  |  |  |  |  |  | A9 radioligand binding inhibition ([1]; human NPY-Y1 membranes): − (“−” indicates less than 50% inhibition at 10 μM); A8 radioligand binding inhibition (Human neurokinin (NK1); human neurokinin NK1 membranes): − (“−” indicates less than 50% inhibition at 10 μM); A6 radioligand binding inhibition ([2]; human MCH1 membranes): + (“+” indicates greater than 50% inhibition at 10 μM); A5 radioligand binding inhibition (Human melanocortin (MC5); human melanocortin MC5 membranes): + (“+” indicates greater than 50% inhibition at 10 μM); A1 radioligand binding inhibition (Human δ-opioid (DOP); human δ-opioid (DOP) membranes): − (“−” indicates less than 50% inhibition at 10 μM); A7 radioligand binding inhibition (Human μ-opioid (MOP); human μ-opioid (MOP) membranes): − (“−” indicates less than 50% inhibition at 10 μM); A4 radioligand binding inhibition (Human Melanocortin (MC4); human melanocortin MC4 membranes): + (“+” indicates greater than 50% inhibition at 10 μM); A3 radioligand binding inhibition (Human Melanocortin (MC3); human melanocortin MC3 membranes): + (“+” indicates greater than 50% inhibition at 10 μM); A11 radioligand binding inhibition (Mouse urotensin (mUR2); mouse urotensin mUR2 membranes): − (“−” indicates less than 50% inhibition at 10 μM); A10 radioligand binding inhibition (Human opioid (ORL1); human ORL1 membranes): − (“−” indicates less than 50% inhibition at 10 μM); A2 radioligand binding inhibition (Human κ-Opioid (KOP); human κ-opioid (KOP) membranes): − (“−” indicates less than 50% inhibition at 10 μM) |
| NCCC(=O)NC1C(OCc2ccccc2)OC(COCc2ccc3ccccc3c2)C(O)C1OCc1ccc2ccccc2c1 (stereo not shown) [compound 366] | − (“−” indicates less than 50% inhibition at 10 μM) | + (“+” indicates greater than 50% inhibition at 10 μM) | − (“−” indicates less than 50% inhibition at 10 μM) | + (“+” indicates greater than 50% inhibition at 10 μM) | − (“−” indicates less than 50% inhibition at 10 μM) | − (“−” indicates less than 50% inhibition at 10 μM) | + (“+” indicates greater than 50% inhibition at 10 μM) | + (“+” indicates greater than 50% inhibition at 10 μM) | − (“−” indicates less than 50% inhibition at 10 μM) | − (“−” indicates less than 50% inhibition at 10 μM) | − (“−” indicates less than 50% inhibition at 10 μM) |  |
| NCCC(=O)NC1C(OCc2ccc(Cl)cc2)OC(COCc2ccc3ccccc3c2)C(O)C1OCc1ccccc1 (single isomer, unassigned) [compound 484] | − (“−” indicates less than 50% inhibition at 10 μM) | + (“+” indicates greater than 50% inhibition at 10 μM) | − (“−” indicates less than 50% inhibition at 10 μM) | + (“+” indicates greater than 50% inhibition at 10 μM) | − (“−” indicates less than 50% inhibition at 10 μM) | − (“−” indicates less than 50% inhibition at 10 μM) | − (“−” indicates less than 50% inhibition at 10 μM) | − (“−” indicates less than 50% inhibition at 10 μM) | − (“−” indicates less than 50% inhibition at 10 μM) | − (“−” indicates less than 50% inhibition at 10 μM) | − (“−” indicates less than 50% inhibition at 10 μM) |  |
| NCCCC(=O)NC1C(OCc2ccc(Cl)cc2)OC(COCc2ccc3ccccc3c2)C(O)C1OCc1ccc2ccccc2c1 (single isomer, unassigned) [compound 496] | − (“−” indicates less than 50% inhibition at 10 μM) | + (“+” indicates greater than 50% inhibition at 10 μM) | + (“+” indicates greater than 50% inhibition at 10 μM) | + (“+” indicates greater than 50% inhibition at 10 μM) | − (“−” indicates less than 50% inhibition at 10 μM) | + (“+” indicates greater than 50% inhibition at 10 μM) | + (“+” indicates greater than 50% inhibition at 10 μM) | + (“+” indicates greater than 50% inhibition at 10 μM) | − (“−” indicates less than 50% inhibition at 10 μM) | + (“+” indicates greater than 50% inhibition at 10 μM) | − (“−” indicates less than 50% inhibition at 10 μM) |  |
